In ChEMBL document CHEMBL3039007, “Structure-based identification of OATP1B1/3 inhibitors” (Mol Pharmacol, 2013):

What was measured:
[1] = target: T1, Solute carrier organic anion transporter family member 1B1 (Homo sapiens, UniProt Q9Y6L6); conditions: chinese hamster, cho, 10 µM
T1 sequence (Q9Y6L6 whole entry): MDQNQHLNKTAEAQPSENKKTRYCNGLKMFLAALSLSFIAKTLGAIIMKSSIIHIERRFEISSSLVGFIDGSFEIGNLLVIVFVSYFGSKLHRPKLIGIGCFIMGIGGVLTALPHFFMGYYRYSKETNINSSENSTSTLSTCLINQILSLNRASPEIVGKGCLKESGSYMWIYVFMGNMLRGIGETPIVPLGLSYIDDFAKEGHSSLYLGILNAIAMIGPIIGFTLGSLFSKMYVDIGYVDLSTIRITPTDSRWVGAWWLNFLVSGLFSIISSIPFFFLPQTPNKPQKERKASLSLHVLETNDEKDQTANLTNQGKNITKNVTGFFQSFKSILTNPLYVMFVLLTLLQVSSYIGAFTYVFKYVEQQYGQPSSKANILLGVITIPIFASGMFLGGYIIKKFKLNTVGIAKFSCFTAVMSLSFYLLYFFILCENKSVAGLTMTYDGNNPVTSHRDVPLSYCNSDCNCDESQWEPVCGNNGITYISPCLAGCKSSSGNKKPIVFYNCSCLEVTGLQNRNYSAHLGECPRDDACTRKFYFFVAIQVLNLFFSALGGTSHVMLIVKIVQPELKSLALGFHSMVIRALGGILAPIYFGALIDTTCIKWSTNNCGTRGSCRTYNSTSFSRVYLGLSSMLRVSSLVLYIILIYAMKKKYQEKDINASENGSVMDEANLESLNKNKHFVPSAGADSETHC

[2] = target: T2, Solute carrier organic anion transporter family member 1B3 (Homo sapiens, UniProt Q9NPD5); conditions: chinese hamster, cho, 10 µM
T2 sequence (Q9NPD5 whole entry): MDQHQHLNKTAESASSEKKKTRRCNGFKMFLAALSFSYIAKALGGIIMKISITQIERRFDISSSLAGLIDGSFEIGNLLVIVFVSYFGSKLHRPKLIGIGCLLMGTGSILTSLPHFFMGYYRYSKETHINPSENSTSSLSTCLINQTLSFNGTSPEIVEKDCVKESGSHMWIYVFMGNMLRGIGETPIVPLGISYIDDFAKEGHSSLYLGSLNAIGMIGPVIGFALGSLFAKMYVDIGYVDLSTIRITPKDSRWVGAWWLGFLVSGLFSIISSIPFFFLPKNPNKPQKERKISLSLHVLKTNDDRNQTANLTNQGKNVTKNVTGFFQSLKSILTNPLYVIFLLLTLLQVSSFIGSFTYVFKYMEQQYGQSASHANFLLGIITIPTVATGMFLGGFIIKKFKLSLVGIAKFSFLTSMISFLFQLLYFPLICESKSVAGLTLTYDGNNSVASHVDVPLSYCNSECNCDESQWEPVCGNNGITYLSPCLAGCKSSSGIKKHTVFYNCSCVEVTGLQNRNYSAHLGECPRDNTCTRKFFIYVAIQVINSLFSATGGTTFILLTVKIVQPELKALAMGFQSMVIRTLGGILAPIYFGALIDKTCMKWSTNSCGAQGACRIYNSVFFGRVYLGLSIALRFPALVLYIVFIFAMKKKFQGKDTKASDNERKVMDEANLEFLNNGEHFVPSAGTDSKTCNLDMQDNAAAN

Structure (SMILES) | residual activity [1] [%] | residual activity [2] [%]
Cc1cccc(CN2CCN(C(c3ccccc3)c3ccc(Cl)cc3)CC2)c1.Cl.O (centres undefined) | 80.22 | 79.23
CNC(C)(C)Cc1ccccc1.O=S(=O)(O)O | 107.5 | 109.4
CCN(CC)CCNC(=O)c1cc(Cl)c(N)cc1OC.Cl | 84.82 | 108.2
CN1CCc2c(c3ccccc3n2Cc2ccccc2)C1.CN1CCc2c(c3ccccc3n2Cc2ccccc2)C1.O=S(=O)(O)c1cccc2c(S(=O)(=O)O)cccc12 | 69.52 | 77.15
COc1cc2c3cc1Oc1cc(ccc1O)C[C@@H]1c4c(cc(OC)c(O)c4Oc4ccc(cc4)C[C@@H]3N(C)CC2)CC[N+]1(C)C.[Cl-] | 99.28 | 110.3
C[C@H]1CC[C@]2(NC1)O[C@H]1C[C@H]3[C@@H]4CC[C@H]5C[C@@H](O)CC[C@]5(C)[C@H]4CC[C@]3(C)[C@H]1[C@@H]2C.Cl | 108.8 | 99.59
CSCC[C@H](NC=O)C(=O)N[C@@H](CC(C)C)C(=O)N[C@@H](Cc1ccccc1)C(=O)O | 76.72 | 120.4
COc1cc(OC)c2c(c1)O[C@H](c1ccc(OC)c(OC)c1)[C@@H](O)C2 | 123.7 | 103.7
CC(=O)[C@H]1CC[C@H]2[C@@H]3CC[C@@H]4C[C@H](O)CC[C@]4(C)[C@H]3C[C@H](O)[C@]12C | 97.69 | 117.8
CSCC[C@H](N)C(=O)N[C@@H](CC(C)C)C(=O)N[C@@H](Cc1ccccc1)C(=O)OC(C)=O | 102.4 | 94.57
CC(=O)[C@H]1CC[C@H]2[C@@H]3CC(=O)C4=CC(=O)CC[C@]4(C)[C@H]3CC[C@]12C | 38.54 | 75.51
C[C@@H]1O[C@@H](O[C@H]2[C@H](O[C@H]3CC[C@]4(C)C5CC=C6[C@@H]7CC(C)(C)CC[C@]7(C(=O)O)CC[C@]6(C)[C@]5(C)CC[C@@H]4[C@]3(C)CO)OC[C@H](O)[C@@H]2O)[C@H](O)[C@H](O)[C@H]1O (some centres undefined) | 103.8 | 112.9
CC1=CC(=O)[C@H]2C(C)(C)CCC[C@]2(C)[C@@]1(O)CCc1ccoc1 | 48.25 | 78.78
COc1cc(OC)c2c(c1Cl)O[C@@]1(C(=O)CC(=O)C[C@H]1C)C2=O | 81.69 | 85.63
CC(=O)O[C@@H]1C[C@H]2C(C)(C)C=CC(=O)[C@@]2(C)[C@H]2CC[C@]3(C)[C@@H](c4ccoc4)OC(=O)[C@H]4O[C@]43[C@]21C | 18.57 | 46.89
CC(=O)O[C@H]1CC[C@@]2(C)C(=CC[C@@H]3[C@@H]2CC[C@]2(C)C4C(C[C@@H]32)OC2(CCC(C)CO2)[C@H]4C)C1 (some centres undefined) | 111 | 105.4
COC(=O)[C@@H]1OC(=O)[C@H]2O[C@]23[C@@]2(C)[C@H](CC[C@@]13C)[C@@]1(C)[C@@H](OC(C)=O)C[C@@H](OC(C)=O)C(C)(C)[C@@H]1C[C@@H]2O | 66.58 | 72.87
CC(=O)O[C@H]1C[C@@H](OC(C)=O)C(C)(C)[C@@H]2CC(=O)[C@]3(C)[C@H](CC[C@@]4(C)[C@H](c5ccoc5)OC(=O)[C@H]5O[C@]543)[C@@]12C | 55.58 | 72.19
CC(=O)O[C@H]1CC[C@@]2(C)[C@@H](CC[C@@H]3[C@@H]2CC[C@]2(C)[C@@H]4[C@H](C[C@@H]32)O[C@@]2(CCC(C)CO2)[C@H]4C)C1 (some centres undefined) | 112.3 | 107.6

Structure (SMILES) | residual activity [1] [%] | residual activity [2] [%]
CC(=O)O[C@H]1CC[C@]2(C)C3=C(CC[C@H]2C1(C)C)[C@@]1(C)CC[C@H]([C@H](C)CCC=C(C)C)[C@]1(C)CC3 | 29.18 | 40.21
COC(=O)[C@@H]1OC(=O)[C@H]2O[C@]23[C@]2(C)[C@H](O)C[C@H]4C(C)(C)[C@H](OC(C)=O)C[C@H](OC(C)=O)[C@]4(C)[C@H]2CC[C@@]13C | 70.09 | 83.24
CC(C)=CCC[C@]1(C)C=Cc2c(O)c3c(c(CC=C(C)C)c2C1)O[C@]12C(=C[C@@H]4C[C@H]1C(C)(C)O[C@@]2(C/C=C(/C)C(N)=O)C4=O)C3=O | 57.81 | 70.77
CC(=O)O[C@H]1C[C@@H](OC(C)=O)C(C)(C)[C@@H]2C[C@@H](OC(C)=O)[C@]3(C)[C@H](CC[C@]4(C)[C@H](c5ccoc5)C(=O)[C@H]5O[C@@]534)[C@@]12C | 26.02 | 57.61
CC(=O)O[C@H]1C[C@@H](OC(C)=O)C(C)(C)[C@@H]2C[C@@H](OC(C)=O)[C@@]3(C)C4=CC(=O)O[C@@H](c5ccoc5)[C@]4(C)CC[C@@H]3[C@@]12C | 107.2 | 104.2
CC1(C)C(=O)C=C[C@]2(C)[C@H]3CC[C@@]4(C)[C@H](c5ccoc5)OC(=O)[C@H]5O[C@]54[C@]3(C)C=C[C@@H]12 | 56.92 | 75.29
CC1CC[C@]2(OC1)OC1C[C@H]3[C@@H]4CC[C@H]5C[C@@H](O)CC[C@]5(C)C4=CC[C@]3(C)C1[C@@H]2C (some centres undefined) | 109.1 | 108.3
CC(=O)O[C@H]1C[C@@H](OC(C)=O)C(C)(C)[C@@H]2CC(=O)[C@]3(C)[C@H](CC[C@@]4(C)[C@H](C(=O)O)OC(=O)[C@H]5O[C@]543)[C@@]12C | 72.69 | 72.75
COC(=O)[C@@]1(C)CCC[C@]2(C)c3ccc(O)c(C(C)C)c3CC[C@@H]12 | 90.51 | 122.1
CC(=O)Oc1ccc2c(c1C(C)C)CC[C@H]1C(C)(C)CCC[C@]21C | 70.34 | 105.1
CC(=O)O[C@@H]1C[C@H]2C(C)(C)C(=O)[C@H]3O[C@H]3[C@]2(C)[C@H]2CC[C@@]3(C)[C@H](c4ccoc4)OC(=O)[C@H]4O[C@]43[C@@]21C | 58.52 | 88.38
CC1(C)[C@H](O)C[C@H](O)[C@]2(C)[C@H]3CC[C@@]4(C)[C@H](c5ccoc5)OC(=O)[C@H]5O[C@]54[C@]3(C)C(=O)C[C@@H]12 | 48.25 | 93.94
CC(C)c1c(O)c(-c2cc3c(c(C(C)C)c2O)CC[C@H]2C(C)(C)CCC[C@]32C)cc2c1CC[C@H]1C(C)(C)CCC[C@]21C | 64.65 | 91.38
OC[C@@H](O)C(O)[C@H](O)CO | 121.4 | 118.8
O=C(Nc1ccccc1)Nc1ccccc1 | 86.66 | 104.3
NC(=O)CN1CCCC1=O | 88.77 | 103.1
CC(=O)Nc1ccc(S(=O)(=O)Nc2ccc([N+](=O)[O-])cc2)cc1 | 61.58 | 88.89
N=C(N)c1ccc(OCCCCCOc2ccc(C(=N)N)cc2)cc1.O=S(=O)(O)CCO | 99.74 | 156
